# Assay results taken from patent publication US5614562A, “Method of treating drug resistant tumor cells using organoselenones” (The University of Sourthern California, priority 1992, dated 1997).
# Where two headings read alike, the source gives them in different places.
# How the values were obtained:
# [1] = tested on: HT29 human colon carcinoma cells; assay: Growth inhibition cytotoxicity against HT29 human colon carcinoma cells (MER(+)); type: cell-based; conditions: HT-29
# Text: (Example 15) These cells are very high in the alkyltransferase enzyme for repair of DNA guanine O6-alkyl products, and therefore are considered strongly MER(+) in phenotype. Levels of this enzyme in HT29 cells have averaged about 0.5 pmol/mg protein in recent studies (K. Chan, et al., unpublished). […] Thus, the lack of cross-resistance to ethyleneimines by the present invention of 2-chloroethyl aryl selenones is not associated with resistence mediated by the alkyltransferase repair enzyme.
# [2] = compared with chlorambucil; cited from earlier work
# HCT/VP35 = assay: In vitro cytotoxicity, VP16 resistant HCT/VP35 human colon carcinoma; type: cell-based; conditions: for ratio of IC50 values HCT/VP35 vs HCT116: IC50 divided by IC50 for HCT116; for IC50 HCT/VP35 / IC50: VP16 resistant, data provided by Bristol-Myers Laboratories; for IC50: Homo sapiens, HCT/VP35; for fold increase in IC50, HCT/VP35: vs HCT116
# Text: | HCT/VP35 human colon, VP16 resistant
# HCT116 = assay: In vitro cytotoxicity, HCT116 human colon carcinoma; type: cell-based; conditions: data provided by Bristol-Myers Laboratories; for IC50: Homo sapiens, HCT-116
# Text: ^b Cell lines: HCT116 human colon (sensitive to VP16 and VM26)
# HCT/VM46 = assay: In vitro cytotoxicity, VM26 resistant HCT/VM46 human colon carcinoma; type: cell-based; conditions: for ratio of IC50 values HCT/VM46 vs HCT116: IC50 divided by IC50 for HCT116; for IC50 HCT/VM46 / IC50: VM26 resistant, data provided by Bristol-Myers Laboratories; for IC50: Homo sapiens; for fold increase in IC50, HCT/VM46: vs HCT116
# Text: | HCT/VM46 human colon, VM26 resistant
# L1210/0 [3] = conditions: cited from earlier work
# L1210/L-PAM [4] = conditions: L1210/L-PAM line; cited from earlier work
# L1210/0 [5] = assay: Cytotoxicity, 48-hr exposure of L1210/0 leukemia cells; type: cell-based, murine; conditions: read-out: IC50 L1210/0
# Text: (§1) Murine L1210 leukemia cells sensitive (L1210/0) and resistant (L1210/L-PAM)to L-phenylalanine mustard were obtained that are adaptable to either in vitro or in vivo passage.
# (§2) Broad resistance of the L1210/L-PAM cell line is shown by the approximately 4-fold and 9-fold increases in IC50, compared to L1210/0, for L-PAM and mechlorethamine, respectively (Comparative Examples 3 and 4). […].
# L1210/L-PAM [6] = assay: Cytotoxicity, 48-hr exposure of L-PAM resistant L1210/L-PAM leukemia cells; type: cell-based, murine; conditions: for IC50: read-out: IC50 L1210/L-PAM; for fold increase in IC50, L1210/L-PAM compared to L1210/0: 48-h exposure
# Text: as §1, §2
# [7] = Mus musculus, L1210/0, 48-hr exposure
# [8] = Mus musculus, L1210/LPAM, 48-hr exposure
molecule,measurement,setting,value
"NC(=O)N(CCCl)N=O [chloroethylnitrosourea (CNU), chloroethylnitrosourea, reference compound]",IC50,[1],250 µM
CS(=O)(=O)CS(=O)(=O)OCCCl [Clomesone],nucleophilic selectivity,[2],relatively high nucleophilic selectivity approaching that of chlorambucil
3-methanesulfonylpropyl phenyl selenone,ratio of IC50 values HCT/VP35 vs HCT116,HCT/VP35,0.8
same,IC50 HCT/VP35,HCT/VP35,5.15 µg/mL
same,IC50 HCT116,HCT116,6.34 µg/mL
same,ratio of IC50 values HCT/VM46 vs HCT116,HCT/VM46,0.8
same,IC50 HCT/VM46,HCT/VM46,4.93 µg/mL
O=P1(N(CCCl)CCCl)NCCCO1 (stereo not drawn) [cyclophosphamide],sensitivity of parent L1210/0 line,L1210/0 [3],sensitive
same,in vivo resistance (log cell kill differential),L1210/L-PAM [4],> 2 log
"O=NN(CCCl)C(=O)NCCCl [BCNU, carmustine]",sensitivity of parent L1210/0 line,L1210/0 [3],sensitive
"2,6Bis(3-methanesulfonylpropylseleno)lutidine [Lutidine Derivative]",IC50 HCT/VP35,HCT/VP35,> 15.6 µg/mL
same,IC50 HCT116,HCT116,> 15.6 µg/mL
same,IC50,L1210/0 [5]; 48-hr exposure,12 µM
same,Ratio of IC50s (L1210/L-PAM vs L1210/0),L1210/L-PAM [6]; 48-hr exposure,2.3
same,IC50,L1210/L-PAM [6]; 48-hr exposure,28 µM
same,IC50 HCT/VM46,HCT/VM46,> 15.6 µg/mL
S=P(N1CC1)(N1CC1)N1CC1 [thioTEPA],sensitivity of parent L1210/0 line,L1210/0 [3],sensitive
same,in vivo resistance (log cell kill differential),L1210/L-PAM [4],4 log
"COc1cc([C@@H]2c3cc4c(cc3[C@@H](O[C@@H]3O[C@@H]5CO[C@@H](c6cccs6)O[C@H]5[C@H](O)[C@H]3O)[C@H]3COC(=O)[C@H]23)OCO4)cc(OC)c1O [VM-26 (Teniposide), Teniposide]",IC50,HCT/VP35,0.53 µg/mL
same,ratio of IC50 values HCT/VP35 vs HCT116,HCT/VP35,15.1
same,"fold increase in IC50, HCT/VP35",HCT/VP35,15.1 fold
same,IC50,HCT116,0.035 µg/mL
same,IC50,HCT/VM46,0.17 µg/mL
same,ratio of IC50 values HCT/VM46 vs HCT116,HCT/VM46,4.9
same,"fold increase in IC50, HCT/VM46",HCT/VM46,4.9 fold
"N[C@@H](Cc1ccc(N(CCCl)CCCl)cc1)C(=O)O [L-Phenylalanine Mustard (L-PAM), L-Phenylalanine Mustard]",IC50,"L1210/0 [5]; Mus musculus, L1210/0, 48 h",1.6 µM
same,"fold increase in IC50, L1210/L-PAM compared to L1210/0",L1210/L-PAM [6],approximately 4 fold
same,Ratio of IC50s (L1210/L-PAM vs L1210/0),L1210/L-PAM [6]; 48-hr exposure,4.4
same,IC50,"L1210/L-PAM [6]; Mus musculus, L1210/LPAM, 48 h",7 µM
same,sensitivity of parent L1210/0 line,L1210/0 [3],sensitive
same,in vivo resistance (log cell kill differential),L1210/L-PAM [4],4 log
CS(=O)(=O)OCCC[Se]CCCOS(C)(=O)=O [(MsOCH2 CH2 CH2)2 Se],IC50,L1210/0 [5]; [7],2.3 µM
same,"fold increase in IC50, L1210/L-PAM compared to L1210/0",L1210/L-PAM [6],7 fold
same,Ratio of IC50s (L1210/L-PAM vs L1210/0),L1210/L-PAM [6]; 48-hr exposure,7.0
same,IC50,L1210/L-PAM [6]; [8],16 µM
CS(=O)(=O)OCCC[Se]c1ccccc1 [PhSeCH2 CH2 CH2 OMs],IC50,L1210/0 [5]; [7],52 µM
same,Ratio of IC50s (L1210/L-PAM vs L1210/0),L1210/L-PAM [6]; 48-hr exposure,1.9
same,IC50,L1210/L-PAM [6]; [8],100 µM
"COc1cc([C@@H]2c3cc4c(cc3[C@@H](O[C@@H]3O[C@@H]5CO[C@@H](C)O[C@H]5[C@H](O)[C@H]3O)[C@H]3COC(=O)[C@H]23)OCO4)cc(OC)c1O [VP-16 (Etoposide), Etoposide]",IC50,HCT/VP35,4.62 µg/mL
same,ratio of IC50 values HCT/VP35 vs HCT116,HCT/VP35,10.0
same,"fold increase in IC50, HCT/VP35",HCT/VP35,10.0 fold
same,IC50,HCT116,0.46 µg/mL
same,IC50,HCT/VM46,1.48 µg/mL
same,ratio of IC50 values HCT/VM46 vs HCT116,HCT/VM46,3.2
same,"fold increase in IC50, HCT/VM46",HCT/VM46,3.2 fold
(CH3)2 NCSeCH2 CH2 Cl,IC50,L1210/0 [5]; 48-hr exposure,18 µM
same,Ratio of IC50s (L1210/L-PAM vs L1210/0),L1210/L-PAM [6]; 48-hr exposure,1.7
same,IC50,L1210/L-PAM [6]; 48-hr exposure,30 µM
CS(=O)(=O)OCCCCOS(C)(=O)=O [Busulfan],IC50,L1210/0 [5]; [7],55 µM
same,Ratio of IC50s (L1210/L-PAM vs L1210/0),L1210/L-PAM [6]; 48-hr exposure,1.1
same,IC50,L1210/L-PAM [6]; [8],60 µM
